Measured values published in patent US5475000A, “3-(substituted tetrazolyl)-4-oxo-4H-pyrido-[1,2-a]pyrimidines, salts thereof, pharmaceutical compositions containing them and process for preparing same” (Chinoin Gyogyszer-es Vegyeszeti Termekek Gyara Rt., priority 1991, dated 1995).
Where a name gives a salt, the structure may show the parent alone.

Tests used:
[1] = tested on: gastric mucosa lesion induced by 96% ethanol containing hydrochloric acid; experiment: Protective action against the gastric mucosa lesion induced by 96% ethanol containing hydrochloric acid (acid-ethanol gastric ulcer), p.o.; format: in vivo; details: Rattus norvegicus, po, rats, 0.5 ml of 1:0.02 mixture of 96% ethanol and hydrochloric acid, read-out: ID50 p.o. mg/kg, gastric mucosa lesion induced by 96% ethanol containing hydrochloric acid
Procedure: As an example, the protective action of the compounds according to the invention against gastric ulcer induced by 0.5 ml of a 1:0.02 volume ratio mixture of 96% ethanol and hydrochloric acid is illustrated in Table 1. [for the method, see: Gastroenterology 77, 433 (1979)]
Protective action in rats of the compounds according to the
invention against the gastric mucosa lesion induced by 96%
ethanol containing hydrochloric acid

[2] = tested on: indomethacin-induced gastric mucosa lesion; experiment: Inhibition of the indomethacin-induced gastric mucosa lesion, p.o.; format: in vivo; details: Rattus norvegicus, po, rats, read-out: ID50 p.o. mg/kg, indomethacin-induced gastric mucosa lesion
Source text: The effect of the compounds to the invention, given as examples, against the indomethacin-induced ulcer [Arch. Int.
Inhibition of the indomethacin-induced gastric mucosa

[3] = tested on: indomethacin-induced duodenal ulcer; experiment: Indomethacin-induced duodenal/small intestine ulcer formation (method of Tsuromi), with lethality caused by indomethacin; format: in vivo, rat; details: 50 mg/kg on 4 consecutive days, 15 mg/kg oral indomethacin on 2nd day, vs control
Procedure: According to the method of Tsuromi (J. Pharm. Dyn. 1980, 3, 659) the compound was administered to the rats in a dose of 50 mg/kg on 4 consecutive days. On the 2nd day a 15 mg/kg oral dose of indomethacin was given to the rats. The ulcer formation was determined in the small intestine on the 3rd day following the administration of the indomethacin. In comparison to the control, the compound according to the invention exerted an inhibition of 20% on the ulcer formation and also an inhibition of 100% on the lethality caused by indomethacin.

[4] = tested on: gastrointestinal ulceration induced by indomethacin; experiment: Gastrointestinal ulceration induced by indomethacin (known compound); format: in vivo

Structure (SMILES)	ED50 [1]	ED50 [2]	inhibition on the ulcer formation in the small intestine ([3]; determined on 3rd day following indomethacin)	inhibition on the lethality caused by indomethacin [3]	prevention of the gastrointestinal ulceration induced by indomethacin [4]
Cc1cccn2c(=O)c(-c3nnnn3C(C)C)cnc12 [3-(1-isopropyl-1H-tetrazol-5-yl)-9-methyl-4-oxo-4H-pyrido[1,2-a]pyrimidine]	0.34 mg/kg	–	–	–	–
C=CCn1nnc(-c2cnc3c(C)cccn3c2=O)n1 [3-(2-allyl-2H-tetrazol-5-yl)-9-methyl-4-oxo-4H-pyrido[1,2-a]pyrimidine]	2.9 mg/kg	2.5 mg/kg	–	–	–
CCCCn1nnc(-c2cnc3c(C)cccn3c2=O)n1 [3-(2-butyl-2H-tetrazol-5-yl)-9-methyl-4-oxo-4H-pyrido[1,2-a]pyrimidine]	2 mg/kg	–	–	–	–
CC(C)n1nnc(-c2cnc3ccccn3c2=O)n1 [3-(2-isopropyl-2H-tetrazol-5-yl)-4-oxo-4H-pyrido[1,2-a]pyrimidine]	2.2 mg/kg	4 mg/kg	–	–	–
Cc1cccn2c(=O)c(-c3nnn(C(C)C)n3)cnc12 [3-(2-isopropyl-2H-tetrazol-5-yl)-9-methyl-4-oxo-4H-pyrido[1,2-a]pyrimidine]	0.23 mg/kg	2.6 mg/kg	–	–	–
CCCn1nnc(-c2cnc3c(C)cccn3c2=O)n1 [3-(2-propyl-2H-tetrazol-5-yl)-9-methyl-4-oxo-4H-pyrido[1,2-a]pyrimidine]	0.05 mg/kg	5.5 mg/kg	20%	100%	–
Cc1cccn2c(=O)c(-c3nn[nH]n3)cnc12 [9-methyl-3-(5-tetrazolyl)-4-oxo-4-H-pyrido[1,2-a]pyrimidine potassium salt]	–	–	–	–	did not prevent
